Test results taken from patent US11524938B2, “Aromatic sulfonamide derivatives” (Bayer Pharma Aktiengesellschaft, priority 2016, dated 2022).
pIC50: −log10 of the molar value.

Biological target: T1, human P2X4 (Homo sapiens, UniProt Q99571)
T1 sequence (Q99571 1-388): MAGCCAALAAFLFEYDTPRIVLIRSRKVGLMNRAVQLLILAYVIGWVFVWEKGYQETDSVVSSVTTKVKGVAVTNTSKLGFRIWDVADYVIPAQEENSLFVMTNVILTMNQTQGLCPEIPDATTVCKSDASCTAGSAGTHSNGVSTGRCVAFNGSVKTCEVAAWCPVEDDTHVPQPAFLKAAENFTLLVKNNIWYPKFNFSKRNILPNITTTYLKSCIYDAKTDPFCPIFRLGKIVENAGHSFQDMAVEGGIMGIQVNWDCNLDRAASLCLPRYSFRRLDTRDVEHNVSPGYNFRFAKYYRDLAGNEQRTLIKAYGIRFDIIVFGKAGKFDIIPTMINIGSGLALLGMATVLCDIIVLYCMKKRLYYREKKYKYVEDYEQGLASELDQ
Test: Human P2X4 HEK Cell FLIPR Assay
Assay type: cell-based
Details: agonist Bz-ATP at EC80; for Emax: HEK293, HEK293 cells, percentage of maximal inhibition, read-out: Human P2X4 HEK Cells (FLIPR Assay) avg Efficacy [%]; for pIC50: HEK293 cells, individual values listed where some fall outside detection range
Method: HEK293 cells stably expressing human P2X4 were plated in poly-D-lysine-coated 384-well plates at a seeding density of 30000 cells/well and incubated overnight. P2X4 function was assessed by measuring intracellular calcium changes using the calcium-chelating dye Fluo8-AM (Molecular Devices) on a fluorescent imaging plate reader (FLEX/FLIPR station; Molecular Devices). On the day of the assay, the medium was removed and the cells were incubated for 30 min at 37° C. and 5% CO2 in 30 μL of dye buffer (Hank's balanced salt solution, 10 mM HEPES, 1.8 mM CaCl2, 1 mM MgCl2, 2 mM probenecid, 5 mM D-glucose monohydrate, 5 μM Fluo8-AM, pH=7.4). Compounds diluted in probenecid buffer (Hank's balanced salt solution, 10 mM HEPES, 1.8 mM CaCl2, 1 mM MgCl2, 2 mM probenecid, 5 mM D-glucose monohydrate, pH=7.4) were added in a volume of 10 μL and allowed to incubate for 30 min at room temperature. The final assay DMSO concentration was 0.5%. The agonist, Bz-ATP (Tocris), was added in a volume of 10 μL at a concentration representing the EC80 value. The EC80 value of Bz-ATP was determined each assay day prior to compound profiling. The fluorescence was measured for an interval of 120 sec at 2 sec intervals. The excitation and emission wavelengths used to monitor fluorescence were 470-495 nm and 515-575 nm, respectively. The data was analyzed based on the increase in peak relative fluorescence units (RFU) compared to the basal fluorescence and the data was normalized to the agonist control. The compounds were tested in triplicates per plate and mean values were plotted in Excel XLFit to determine IC50 values, percentage of maximal inhibition and the Hill coefficients.

| Emax [%] | pIC50 | SMILES |
| --- | --- | --- |
| 82 | 6.81 | N#Cc1cnn(-c2ccc(NC(=O)Cc3ccccc3F)cc2S(N)(=O)=O)c1 [Example 52, N-[4-(4-Cyano-1H-pyrazol-1-yl)-3-sulfamoylphenyl]-2-(2-fluorophenyl)acetamide] |
| 84 | 6.49 | N#Cc1cnn(-c2ccc(NC(=O)Cc3ccc(O)cc3)cc2S(N)(=O)=O)c1 [Example 194, N-[4-(4-Cyano-1H-pyrazol-1-yl)-3-sulfamoylphenyl]-2-(4-hydroxyphenyl)acetamide] |
| 59 | 7.07 | CC(C)Nc1ncc(-c2ccc(NC(=O)Cc3ccccc3Cl)cc2S(N)(=O)=O)cn1 [Example 310, 2-(2-Chlorophenyl)-N-{4-[2-(propan-2-ylamino)pyrimidin-5-yl]-3-sulfamoylphenyl}acetamide] |
| 49 | 4.86 | Cc1nc(-c2ccc(NC(=O)Cc3ccccc3Cl)cc2S(N)(=O)=O)sc1C [Example 502, 2-(2-Chlorophenyl)-N-[4-(4,5-dimethyl-1,3-thiazol-2-yl)-3-sulfamoylphenyl]acetamide] |
| 93 | 7.33 | CC(C)c1ccccc1CC(=O)Nc1ccc(-n2cc(C#N)cn2)c(S(N)(=O)=O)c1 [Example 213, N-[4-(4-Cyano-1H-pyrazol-1-yl)-3-sulfamoylphenyl]-2-[2-(propan-2-yl)phenyl]-acetamide] |
| 86 | 7.44 | N#Cc1cnn(-c2ccc(NC(=O)Cc3cc(F)ccc3Cl)cc2S(N)(=O)=O)c1 [Example 214, 2-(2-Chloro-5-fluorophenyl)-N-[4-(4-cyano-1H-pyrazol-1-yl)-3-sulfamoylphenyl]-acetamide] |
| 82 | 6.41 | Cn1cc(-c2ccc(NC(=O)Cc3ccccc3F)cc2S(N)(=O)=O)cn1 [Example 374, 2-(2-Fluorophenyl)-N-[4-(1-methyl-1H-pyrazol-4-yl)-3-sulfamoylphenyl]acetamide] |
| 92 | 7.32 | NS(=O)(=O)c1cc(NC(=O)Cc2ccccc2Cl)ccc1-n1ncc(C(F)(F)F)n1 [Example 241, 2-(2-Chlorophenyl)-N-{3-sulfamoyl-4-[4-(trifluoromethyl)-2H-1,2,3-triazol-2-yl]-phenyl}acetamide] |
| 78 | 5.69 | NS(=O)(=O)c1cc(NC(=O)Cc2ccc(Cl)cc2Cl)ccc1-n1cc(Cl)cn1 [Example 79, N-[4-(4-Chloro-1H-pyrazol-1-yl)-3-sulfamoylphenyl]-2-(2,4-dichlorophenyl)acetamide] |
| 79 | 5.59 | Cc1nc(C(F)(F)F)nn1-c1ccc(NC(=O)Cc2ccccc2Cl)cc1S(N)(=O)=O [Example 8, 2-(2-Chlorophenyl)-N-{4-[5-methyl-3-(trifluoromethyl)-1H-1,2,4-triazol-1-yl]-3-sulfamoylphenyl}acetamide] |
| 75 | 7.16 | Cc1nc(-c2ccc(NC(=O)Cc3ccccc3Cl)cc2S(N)(=O)=O)cs1 [Example 420, 2-(2-Chlorophenyl)-N-[4-(2-methyl-1,3-thiazol-4-yl)-3-sulfamoylphenyl]acetamide] |
| 100 | 7.10 | NS(=O)(=O)c1cc(NC(=O)Cc2ccccc2O)ccc1-n1cc(F)cn1 [Example 147, N-[4-(4-Fluoro-1H-pyrazol-1-yl)-3-sulfamoylphenyl]-2-(2-hydroxyphenyl)acetamide] |
| 82 | 6.71 | NS(=O)(=O)c1cc(NC(=O)Cc2ccccc2Cl)ccc1-n1cnc(C2CC2)c1 [Example 250, 2-(2-Chlorophenyl)-N-[4-(4-cyclopropyl-1H-imidazol-1-yl)-3-sulfamoylphenyl]-acetamide] |
| 98 | 7.92 | Cc1ccc(F)c(CC(=O)Nc2ccc(-n3cc(C#N)cn3)c(S(N)(=O)=O)c2)c1Cl [Example 207, 2-(2-Chloro-6-fluoro-3-methylphenyl)-N-[4-(4-cyano-1H-pyrazol-1-yl)-3-sulfamoylphenyl]acetamide] |
| 96 | 7.68 | Cc1cn(-c2ccc(NC(=O)Cc3ccccc3Cl)cc2S(N)(=O)=O)cn1 [Example 251, 2-(2-Chlorophenyl)-N-[4-(4-methyl-1H-imidazol-1-yl)-3-sulfamoylphenyl]acetamide] |
| 83 | 7.57 | NS(=O)(=O)c1cc(NC(=O)Cc2c(F)ccc(F)c2Cl)ccc1-n1cc(F)cn1 [Example 164, 2-(2-Chloro-3,6-difluorophenyl)-N-[4-(4-fluoro-1H-pyrazol-1-yl)-3-sulfamoylphenyl]-acetamide] |
| 88 | 6.09 | NS(=O)(=O)c1cc(NC(=O)Cc2ccccc2Cl)ccc1-n1ccc(C2CC2)n1 [Example 252, 2-(2-Chlorophenyl)-N-[4-(3-cyclopropyl-1H-pyrazol-1-yl)-3-sulfamoylphenyl]-acetamide] |
| 71 | 7.62 | NS(=O)(=O)c1cc(NC(=O)Cc2ccccc2Cl)ccc1-n1cnc(Br)c1 [Example 42, N-[4-(4-Bromo-1H-imidazol-1-yl)-3-sulfamoylphenyl]-2-(2-chlorophenyl)acetamide] |
| 98 | 5.82 | NS(=O)(=O)c1cc(NC(=O)Cc2cccnc2Cl)ccc1-n1cc(Br)cn1 [Example 67, N-[4-(4-Bromo-1H-pyrazol-1-yl)-3-sulfamoylphenyl]-2-(2-chloropyridin-3-yl)-acetamide] |
| 101 | 7.85 | CC(C)Oc1cccc(-c2ccc(NC(=O)Cc3ccccc3Cl)cc2S(N)(=O)=O)c1F [Example 330, 2-(2-Chlorophenyl)-N-[2′-fluoro-3′-(propan-2-yloxy)-2-sulfamoylbiphenyl-4-yl]-acetamide] |
| 82 | 6.98 | NS(=O)(=O)c1cc(NC(=O)Cc2ccccc2F)ccc1-n1cc(CC(F)(F)F)cn1 [Example 519, 2-(2-Fluorophenyl)-N-{3-sulfamoyl-4-[4-(2,2,2-trifluoroethyl)-1H-pyrazol-1-yl]phenyl}acetamide] |
| 40 | < 4.60 | NS(=O)(=O)c1cc(NC(=O)Cc2ccc(F)c(F)c2)ccc1-n1cc(Cl)cn1 [Example 81, N-[4-(4-Chloro-1H-pyrazol-1-yl)-3-sulfamoylphenyl]-2-(3,4-difluorophenyl)acetamide] |
| 93 | 6.86 | NS(=O)(=O)c1cc(NC(=O)Cc2c(F)cccc2Cl)ccc1-c1ccc(Cl)nc1 [Example 461, 2-(2-Chloro-6-fluorophenyl)-N-[4-(6-chloropyridin-3-yl)-3-sulfamoylphenyl]acetamide] |
| 93 |  | Cn1cc(-c2ccc(NC(=O)Cc3ccccc3Cl)cc2S(N)(=O)=O)cn1 [Example 360, 2-(2-Chlorophenyl)-N-[4-(1-methyl-1H-pyrazol-4-yl)-3-sulfamoylphenyl]acetamide] |
| 95 | 5.65 | Cc1cc(F)c(Br)cc1CC(=O)Nc1ccc(-n2cc(Cl)cn2)c(S(N)(=O)=O)c1 [Example 104, 2-(5-Bromo-4-fluoro-2-methylphenyl)-N-[4-(4-chloro-1H-pyrazol-1-yl)-3-sulfamoyl-phenyl]acetamide] |
| 80 | 7.25 | N#Cc1cncc(-c2ccc(NC(=O)Cc3ccccc3Cl)cc2S(N)(=O)=O)c1 [Example 282, 2-(2-Chlorophenyl)-N-[4-(5-cyanopyridin-3-yl)-3-sulfamoylphenyl]acetamide] |
